The assay concerns NZB/W F1 female mice. The assay is described as follows: T cell populations in spleen (FACS) in SLE disease mouse. The assay is classed as in vivo. How it is done: 80 NZB/W F1 female mice (four weeks old) were purchased from Jackson Laboratory and maintained in an SPF breeding room with five mice per cage. Their weight and urine protein were measured at 24 weeks after birth (right before administration), and then all the animals except those having too much urine protein were divided into groups as shown in a table 2 below such that the urine protein and weight might be evenly distributed among the groups.
Then, the mice were administered as described in the table 2 once a day for about 19 weeks from 24 weeks after birth to 42 weeks after birth.
To evaluate a pattern of immune T cell populations in spleen in the SLE disease mouse, a ratio of CD3, CD4, CD8a and CTLA4 expressions as well as a Treg proportion/Th1, Th2, Th17 and Treg master regulator (T-bet, GATA-3, ROR-γt, Foxp3) expression patterns were measured.
To that end, splenocytes were first obtained from the spleen obtained during the mouse autopsy by means of a 70 μm cell strainer (BD), and then red blood cells were hemolyzed by means of an EL buffer and washed with FACS buffer solution (5% BSA/PBS). After that, staining was performed at a concentration recommended by a manufacturer by means of PerCP-cy5.5-conjugated anti-mouse CD3 (ebioscience, Sandiego, Calif., USA), PE-Cyanine7-conjugated anti-mouse CD8a (ebioscience), FITC-conjugated anti-CD4 (BD), APC-conjugated anti-mouse CD25 (BD), PE-conjugated anti-mouse FoxP3 (BD), PE-conjugated anti-mouse RORγt (ebioscience), PE-conjugated anti-mouse T-bet (ebioscience), PE-conjugated anti-mouse GATA-3 (ebioscience), and PE-conjugated anti-mouse CTLA4 (ebioscience) antibodies.
The splenocytes and cell surface marker antibodies were immediately reacted. Before reacting FoxP3, RORγt, T-bet and GATA3 antibodies, the splenocytes were fixed by means of a FoxP3/Transcription Factor staining buffer set, then permeabilized, and then reacted with the antibodies. A ratio of CD4:CD8 in CD3 cells as well as a ratio of CD4+CD8-cells, CD4−CD8+ cells, CD4+CD8+ cells and double negative T cells were respectively measured and compared between the groups. To identify a ratio of FoxP3, RORγt, T-bet and GATA3, which were master regulators of Treg, Th17, Th1 and Th2, a ratio of CD4+CD25+FoxP3+ cells, CD4+CD25+RORγt+ cells, CD4+CD25+ T-bet+ cells and CD4+CD25+GATA3+ cells was respectively measured.

The mark [1] stands for this setting: 50 mg/kg dosed group vs control group.
The mark [2] stands for this setting: spleen, CD3+ gated, experimental groups.

The record followed here is patent US11571426B2, “Compositions for preventing or treating lupus” (CHONG KUN DANG PHARMACEUTICAL CORP., priority 2017, dated 2023).

The structures appear in SMILES notation.

With `O=C(NO)c1ccc(CN(C(=O)N2CCOCC2)c2cccc(C(F)(F)F)c2)cc1` [Compound 374, N-(4-(hydroxycarbamoyl)benzyl)-N-(3-(trifluoromethyl)phenyl)morpholine-4-carboxamide], the “ratio of CD4+T-bet+/CD4+GATA-3+” value (30 mg/kg and 50 mg/kg dosed groups vs control group) is “more significantly decreased”. In addition, under setting [1], the “T-bet expression in CD4+ cells” value was “significantly lower”, the “ratio of CD4+CD25+ cells/CD4+ cells” value is recorded as “significantly lower” and the “ratio of CD25+ cells” value is reported as “significantly lower”. Further, under setting [2], the “ratio of CD4−CD8+ T cells” value is recorded as “increased” and the “ratio of CD4−CD8− T cells” value is given as “decreased”. Moreover, where the note is “spleen, between the groups”, the “ratio of CD4+CD25+Foxp3+, CD4+CD25+RORγt+, CD4+CD25+ T-bet+ and CD4+CD25+GATA-3+ cells” value is listed as “a significance between the groups was not observed yet”. Further, the “ratio of CD4+CD8−: CD4−CD8+ T cells” value (spleen, experimental groups) is given as “tended to decrease as an administered dose was increased”.
